# Data reported in patent publication US8653087B2, “Pyrido [5, 4-D] pyrimidines as cell proliferation inhibitors” (Boehringer Ingelheim International GmbH, priority 2008, dated 2014).
# Biological target: B-Raf (V600E)-kinase (Homo sapiens (Human), UniProt P15056, V600E)
# Test: Kinase test B-RAF (V600E)
# Assay type: biochemical
# Conditions: not given
# Procedure, shortened: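 Read-out is DELFIA europium TRF of phospho-MEK (Ser217/221) on biotinylated MEK1 bound to streptavidin plates, IC50 from dose-response. Reaction ran 60 min at RT with 250 μM ATP, after a 24 h RT preincubation of compound with B-Raf (V600E) kinase, 5% DMSO final.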
# B-Raf (V600E)-kinase, sequence (P15056 whole entry V600E): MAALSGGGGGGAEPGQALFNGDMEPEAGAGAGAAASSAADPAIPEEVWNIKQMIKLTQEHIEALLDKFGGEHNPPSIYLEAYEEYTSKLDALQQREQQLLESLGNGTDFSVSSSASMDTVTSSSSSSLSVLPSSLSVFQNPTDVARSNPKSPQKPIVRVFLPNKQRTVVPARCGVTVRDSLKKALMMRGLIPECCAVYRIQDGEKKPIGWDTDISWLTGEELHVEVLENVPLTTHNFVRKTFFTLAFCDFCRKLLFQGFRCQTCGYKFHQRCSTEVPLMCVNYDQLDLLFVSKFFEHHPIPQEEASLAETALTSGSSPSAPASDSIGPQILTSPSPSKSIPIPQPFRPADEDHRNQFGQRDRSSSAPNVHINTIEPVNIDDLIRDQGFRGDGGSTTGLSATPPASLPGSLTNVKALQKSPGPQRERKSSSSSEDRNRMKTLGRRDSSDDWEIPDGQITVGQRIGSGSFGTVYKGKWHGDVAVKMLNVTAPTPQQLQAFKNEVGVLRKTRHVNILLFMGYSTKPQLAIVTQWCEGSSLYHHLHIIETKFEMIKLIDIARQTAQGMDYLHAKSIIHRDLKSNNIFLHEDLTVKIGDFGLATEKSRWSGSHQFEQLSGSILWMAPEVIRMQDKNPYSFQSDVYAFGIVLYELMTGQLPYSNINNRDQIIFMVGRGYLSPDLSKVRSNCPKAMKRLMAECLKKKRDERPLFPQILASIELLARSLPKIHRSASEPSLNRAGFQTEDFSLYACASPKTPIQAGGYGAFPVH
row,Structure (SMILES),IC50 [nM]
1,Cc1ccc(C(=O)Nc2ccc(C#N)c(C(F)(F)F)c2)cc1Nc1ncnc2cnc(N3CCN(C)CC3)nc12 [III-311],2

# Same assay, conditions: B-RAF (V600E) kinase test, 250 μM ATP
row,Structure (SMILES),IC50 [nM]
1,COCCN1CCN(c2ncc3ncnc(Nc4cc(C(=O)Nc5cc(C(C)(C)C)nn5C)ccc4C)c3n2)CC1 [III-421],12
2,COc1ccc(NC(=O)c2ccc(C)c(Nc3ncnc4cnc(N5CCC[C@H]5CO)nc34)c2)cc1C(F)(F)F [III-546],4
3,COCCN(C)c1ncc2ncnc(Nc3cc(C(=O)Nc4cc(C(C)(C)C)on4)ccc3Cl)c2n1 [III-67],5
4,Cc1ccc(C(=O)NCc2ccc(C(C)(C)C)cc2)cc1Nc1ncnc2cnc(N3CCCN(C)CC3)nc12 [III-218],293
5,Cc1ccc(NC(=O)c2cccc(C(F)(F)F)c2)cc1Nc1ncnc2c(N)nc(N3CCN(C(C)C)CC3)nc12 [II-17],13
6,Cc1ccc(C(=O)Nc2cccc(S(=O)(=O)N(C)C)c2)cc1Nc1ncnc2cnc(N3CCCN(C)CC3)nc12 [III-251],19
7,Cc1ccc(C(=O)Nc2ccccc2)cc1Nc1ncnc2cnc(N3CCCN(C)CC3)nc12 [III-184],2880
8,Cc1ccc(C(=O)Nc2ccc(C(F)(F)F)cc2)cc1Nc1ncnc2c(N)nc(N3CCCN(C)CC3)nc12 [I-3],9
9,Cc1ccc(NS(=O)(=O)C(C)C)cc1Nc1ncnc2cnc(N3CCN(C)CC3)nc12 [IV-58],49
10,CN1CCC(CN2CCN(c3nc(N)c4ncnc(Nc5cccc(C(=O)Nc6cccc(C(F)(F)F)c6)c5)c4n3)CC2)CC1 [I-22],13
11,Cc1ccc(C(=O)Nc2ccc(C#N)c(C(F)(F)F)c2)cc1Nc1ncnc2cnc(N3CCCN(C)CC3)nc12 [III-284],3
12,CN(C)CCNc1ncc2ncnc(Nc3cc(C(=O)Nc4cc(C(C)(C)C)on4)ccc3C(F)(F)F)c2n1 [III-65],4170
13,Cc1ccc(C(=O)NC2CC2)cc1Nc1ncnc2cnc(N(C)CCN(C)C)nc12 [III-203],> 10000
14,Cc1ccc(C(=O)Nc2cc(N3CCN(CC(C)C)CC3)cc(C(F)(F)F)c2)cc1Nc1ncnc2cnc(N3CC[C@H](F)C3)nc12 [III-455],8
15,Cc1ccc(C(=O)Nc2nnc(C(F)(F)F)s2)cc1Nc1ncnc2cnc(N3CCCCC3)nc12 [III-328],442
16,Cc1ccc(C(=O)Nc2cc(C(C)(C)C)on2)cc1N(C)c1ncnc2cnc(N3CC[C@H](F)C3)nc12 [III-583],32
17,Cc1ccc(C(=O)NCc2cccc(C(F)(F)F)c2)cc1Nc1ncnc2cnc(N3CC[C@@H](F)C3)nc12 [III-207],11
18,Cn1nc(C(C)(C)C)cc1NC(=O)c1cc(Cl)cc(Nc2ncnc3cnc(N4CCCC4)nc23)c1Cl [III-374],2000
19,Cc1ccc(C(=O)Nc2cc(N3CCN(CC(C)C)CC3)cc(C(F)(F)F)c2)cc1Nc1ncnc2cnc(N3CCOCC3)nc12 [III-460],4
20,Cc1ccc(NS(=O)(=O)CC(F)(F)F)cc1Nc1ncnc2cnc(N3CCN(C)CC3)nc12 [IV-53],10000
21,CNc1ncnc2c(Nc3cccc(NC(=O)c4cccc(C(C)(C)C#N)c4)c3)ncnc12 [VIII-3],13
22,Cc1ccc(C(=O)NCc2ccc(C(F)(F)F)cc2)cc1Nc1ncnc2cnc(N3CC[C@@H](F)C3)nc12 [III-242],19
23,Cc1ccc(NC(=O)c2cc(N3CCN(C)CC3)cc(C(F)(F)F)c2)cc1Nc1ncnc2cnc(N(C)CCCN(C)C)nc12 [IV-23],4

row,Structure (SMILES),IC50 [nM]
1,Cc1ccc(C(=O)Nc2cccc(C(C)(C)C#N)c2)cc1Nc1ncnc2cnc(N(C)CCN(C)C)nc12 [III-198],11
2,CN(C)CCN(C)c1ncc2ncnc(Nc3cc(C(=O)Nc4cc(C(C)(C)C)on4)ccc3C(F)(F)F)c2n1 [III-56],1990
3,Cc1ccc(C(=O)Nc2ccc(C(F)(F)F)cc2)cc1Nc1ncnc2c(N)nc(N3CCNCC3)nc12 [I-4],7
4,Cc1ccc(C(=O)Nc2cc(OCCN(C)C)cc(C(F)(F)F)c2)cc1Nc1ncnc2cnc(N3CCSCC3)nc12 [III-142],3
5,COc1ccc(C(=O)Nc2cc(C(C)(C)C)on2)cc1Nc1ncnc2cnc(N3CCCCCC3)nc12 [III-87],3
6,COc1ccc(NC(=O)c2ccc(C)c(N(C)c3ncnc4cnc(N5CC[C@H](F)C5)nc34)c2)cc1C(F)(F)F [III-587],65
7,Cc1ccc(C(=O)Nc2cc(C(F)(F)F)ccn2)cc1Nc1ncnc2cnc(N3CCCN(C)CC3)nc12 [III-283],3
8,COc1ccc(NC(=O)c2ccc(Cl)c(Nc3ncnc4cnc(N5CCCCC5)nc34)c2)cc1C(F)(F)F [III-10],6
9,Cc1ccc(C(=O)Nc2cccc(C(F)(F)F)c2)cc1Nc1ncnc2cnc(N(C)CCN(C)C)nc12 [III-232],4
10,Cc1cc(C(=O)Nc2cc(C(C)(C)C)nn2C)cc(Nc2ncnc3cnc(N4CCN(C)CC4)nc23)c1C [III-373],8
11,COc1ccc(C(C)(C)C)cc1NC(=O)c1ccc(C)c(Nc2ncnc3cnc(N4CCN(C)CC4)nc23)c1 [III-230],6
12,COc1ccc(C(=O)Nc2ccc(OC)c(C(F)(F)F)c2)cc1Nc1ncnc2cnc(NCCN(C)C)nc12 [III-27],8
13,Cc1ccc(C(=O)Nc2ccnc(C(C)(C)C)c2)cc1Nc1ncnc2cnc(N(C)C3CC(N4CCN(C)CC4)C3)nc12 (stereo not drawn) [III-597],5
14,CN1CCCN(c2nc(N)c3ncnc(Nc4cc(C(=O)Nc5cccc(C(F)(F)F)c5)ccc4Cl)c3n2)CC1 [I-24],9
15,Cc1ccc(C(=O)NCc2cccc(C(C)(C)C)c2)cc1Nc1ncnc2cnc(N(C)CCN(C)C)nc12 [III-3],118
16,CC(C)CN1CCN(c2nc(N)c3ncnc(Nc4ccc(F)c(C(=O)Nc5cc(C(C)(C)C)n[nH]5)c4)c3n2)CC1 [I-83],2200
17,COCCN1CCN(c2ncc3ncnc(Nc4cc(C(=O)Nc5cc(C(F)(F)F)ccc5-n5ccnn5)ccc4C)c3n2)CC1 [III-537],12
18,Cc1ccc(C(=O)Nc2cccc(N(C)C)c2)cc1Nc1ncnc2cnc(N3CCOCC3)nc12 [III-309],4
19,Cc1ccc(C(=O)Nc2cc(C(C)(C)C)on2)cc1Nc1ncnc2cnc(N3CCN4CCCC4C3)nc12 (stereo not drawn) [III-484],3
20,CN1CCN(c2nc(N)c3ncnc(Nc4cc(C(=O)Nc5cccc(C(F)(F)F)c5)ccc4Br)c3n2)CC1 [I-26],70
21,Cc1ccc(NC(=O)c2cccc(C(C)(C)C#N)c2)cc1Nc1ncnc2cnc(N(C)CC3CCOCC3)nc12 [IV-39],4
22,Cc1ccc(C(=O)Nc2cc(C(F)(F)F)ccn2)cc1Nc1ncnc2cnc(N3CCN(CC(C)C)CC3)nc12 [III-449],3

# Results, then the molecule that gave them:
row,IC50 [nM],Structure (SMILES)
1,2,Cc1ccc(NC(=O)c2cccc(C(C)(C)C#N)c2)cc1Nc1ncnc2cnc(N(C)CCCN(C)C)nc12 [IV-22]
2,< 1,COc1ccc(NC(=O)c2ccc(C)c(Nc3ncnc4cnc(N5CCOCC5)nc34)c2)cc1C(F)(F)F [III-2]
3,3,Cc1ccc(C(=O)Nc2ccc(N(C)CCN(C)C)c(C(F)(F)F)c2)cc1Nc1ncnc2cnc(N3CCOCC3)nc12 [III-130]
4,3,CN1CCC(N2CCN(c3nc(N)c4ncnc(Nc5cc(C(=O)Nc6cccc(C(F)(F)F)c6)ccc5Cl)c4n3)CC2)CC1 [I-25]
5,3,CC(C)N1CCN(c2ncc3ncnc(Nc4cc(C(=O)Nc5cc(C(C)(C)C)on5)ccc4F)c3n2)CC1 [III-396]
6,2,Cc1ccc(C(=O)Nc2cc(N3CCCN(C)CC3)cc(C(F)(F)F)c2)cc1Nc1ncnc2cnc(N3CCOCC3)nc12 [III-463]
7,2,Cc1ccc(C(=O)Nc2cc(C(C)(C)C)on2)cc1Nc1ncnc2cnc(N3C[C@H]4C[C@@H]3CN4C)nc12 [III-497]
8,1,Cc1ccc(C(=O)Nc2cccc(C(C)(C)C#N)c2)cc1Nc1ncnc2cnc(N3CCOCC3)nc12 [III-322]
9,1,CN1CCC(CN2CCN(c3ncc4ncnc(Nc5cc(C(=O)Nc6cc(C(C)(C)C)on6)ccc5F)c4n3)CC2)CC1 [III-394]
10,2,Cc1cn(-c2ncc3ncnc(Nc4cc(C(=O)Nc5cc(C(C)(C)C)on5)ccc4C)c3n2)cn1 [III-367]
11,< 1,CNc1ncnc2c(Nc3cc(NC(=O)c4cccc(C(C)(C)C#N)c4)ccc3C)ncnc12 [VIII-1]
12,3,COc1ncc2ncnc(Nc3cc(NC(=O)c4cc(N5CCN(C)CC5)cc(C(F)(F)F)c4)ccc3C)c2n1 [IV-46]
13,1,COCCN1CCN(c2ncc3ncnc(Nc4cc(C(=O)Nc5ccc(F)c(C(F)(F)F)c5)ccc4C)c3n2)CC1 [III-536]
14,< 1,COCCN1CCN(c2ncc3ncnc(Nc4cc(C(=O)Nc5cccc(C(F)(F)F)c5)ccc4C)c3n2)CC1 [III-423]
15,< 1,Cc1ccc(C(=O)Nc2cc(N3CCN[C@H](C)C3)cc(C(F)(F)F)c2)cc1Nc1ncnc2cnc(N3CCOCC3)nc12 [III-527]
16,< 1,Cc1ccc(C(=O)Nc2cc(C(C)(C)C)n[nH]2)cc1Nc1ncnc2cnc(N3CCOCC3)nc12 [III-515]
17,1,Cc1ccc(NC(=O)c2cccc(C(C)(C)C#N)c2)cc1Nc1ncnc2cnc(N(C)C3CCN(C)CC3)nc12 [IV-29]
18,1,CC(C)(C)c1cc(NC(=O)c2ccc(F)c(Nc3ncnc4cnc(N5CCOCC5)nc34)c2)[nH]n1 [III-391]
19,< 1,Cc1ccc(C(=O)Nc2cccc(C(F)(F)F)c2)cc1Nc1ncnc2c(N)nc(N3CCN(CC4CCN(C)CC4)CC3)nc12 [I-61]
20,1,Cc1ccc(NC(=O)c2cccc(C(C)(C)C#N)c2)cc1Nc1ncnc2cnc(N(C)C)nc12 [IV-12]
21,1,COCCNc1ncc2ncnc(Nc3cc(C(=O)Nc4cc(CN5CCCC5)cc(C(F)(F)F)c4)ccc3C)c2n1 [III-110]
22,1,Cc1ccc(C(=O)Nc2cc(C(C)(C)C)on2)cc1Nc1ncnc2cnc(N3CCN(CC4CCN(C)CC4)CC3)nc12 [III-420]
23,< 1,Cc1ccc(C(=O)Nc2cccc(C(C)(C)C)c2)cc1Nc1ncnc2cnc(NC3CCOC3)nc12 (stereo not drawn) [III-350]
24,2,COc1ccc(NC(=O)c2ccc(C)c(Nc3ncnc4cnc(N5CCN(CCCN6CCCC6)CC5)nc34)c2)cc1C(F)(F)F [III-553]
25,2,Cc1ccc(C(=O)Nc2cccc(C(C)(C)C#N)c2)cc1Nc1ncnc2cnc(N3CCN(C)CC3)nc12 [III-305]
26,2,COc1ncc2ncnc(Nc3cc(C(=O)Nc4cc(C(C)(C)C)on4)ccc3C)c2n1 [III-577]
